One data set concerns study subjects. Put plainly: Treatment of study subjects with peroral daily doses according to intermittent administration schemes. In kind it is in vivo, human. To be noted: same doses and administration schemes; 50-150 mg perorally daily as a single dose. On the procedure:
(§1) Study subjects are treated with compound (76) with the following doses according to the following administration schemes: • in a 3 month trial, 75 mg or 150 mg compound (76) administered perorally daily as a single dose on day 2-7 of the menstrual cycle • in a 3 months trial, 75 mg, 100 mg or 150 mg compound (76) administered perorally daily as a single dose on day 2-7 of the menstrual cycle followed by a 3 months treatment-free period • in a 6 months trial, 75 mg or 150 mg compound (76) administered perorally daily as a single dose • 50 mg or 150 mg per compound (76) administered daily as a single dose over 42 days (6 weeks)
as §1, with “(68)” for “(76)”
as §1, with “36” for “(76)”
as §1, with “37” for “(76)”
as §1, with “52” for “(76)”
as §1, with “144” for “(76)”, “weeks) […]” for “weeks)”

A further data set concerns the target LHRH receptor (Homo sapiens, UniProt P30968). The settings on record: Cho N et al., J. Med. Chem. 1998; cited from earlier work.
For data set [1] the following is noted: in vivo; cited from earlier work.

The structures appear in SMILES notation.

Sequence of LHRH receptor (P30968 whole entry): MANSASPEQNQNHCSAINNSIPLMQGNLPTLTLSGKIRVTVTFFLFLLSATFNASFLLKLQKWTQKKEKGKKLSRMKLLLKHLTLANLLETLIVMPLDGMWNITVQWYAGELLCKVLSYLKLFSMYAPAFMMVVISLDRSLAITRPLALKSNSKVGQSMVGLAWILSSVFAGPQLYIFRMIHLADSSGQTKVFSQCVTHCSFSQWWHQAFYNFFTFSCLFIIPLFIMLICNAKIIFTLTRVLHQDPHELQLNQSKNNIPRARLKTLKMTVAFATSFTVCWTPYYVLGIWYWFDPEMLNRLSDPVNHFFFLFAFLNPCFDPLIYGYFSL

Take `CCC(C)[C@H](NC(=O)Cc1ccccc1F)C(=O)N[C@]1(C(=O)N[C@H](C(N)=S)C(C)CC)CCc2[nH]c3c(Cl)cc(F)cc3c2C1` (some centres unmarked) [compound (68)]: in the data set with study subjects, the “prevention of chemical (hormonal) castration” value (“prevention of chemical” for short) is on record as “successfully prevented”.

Turning to `CC(C)OC(=O)c1cn(Cc2c(F)cccc2F)c2sc(-c3ccc(NC(=O)C(C)C)cc3)c(CN(C)Cc3ccccc3)c2c1=O` [T-98475], at LHRH receptor, the receptor affinity result is “high”. Besides, in data set [1], the bioavailability result is listed as “low”.

For `CCC(C)[C@H](NC(=O)Cc1ccccc1F)C(=O)N[C@]1(C(=O)N[C@H](C(=S)NCN2CCOCC2)C(C)CC)CCc2[nH]c3c(C(F)(F)F)cccc3c2C1` (stereo partly drawn) [Compound 37, (R)-3-{(S)-2-[2-(2-Fluoro-phenyl)-acetylamino]-3-methyl-pentanoylamino}-8-trifluoromethyl-2,3,4,9-tetrahydro-1H-carbazole-3-carboxylic acid {(S)-2-methyl-1-[(morpholin-4-ylmethyl)-thiocarbamoyl]-butyl}-amide], in the data set on study subjects, the “prevention of chemical” value was “successfully prevented”.

For the compound `CCC(C)[C@H](NC(=O)Cc1ccccc1F)C(=O)N[C@]1(C(=O)N[C@H](C(=O)NNc2ccccc2)C(C)CC)CCc2[nH]c3c(C(F)(F)F)cccc3c2C1` (stereo partly drawn) [Compound 144, (R)-3-{(S)-2-[2-(2-Fluoro-phenyl)-acetylamino]-3-methyl-pentanoylamino}-8-trifluoromethyl-2,3,4,9-tetrahydro-1H-carbazole-3-carboxylic acid [(S)-2-methyl-1-(N′-phenyl-hydrazinocarbonyl)-butyl]-amide], the “prevention of chemical” value in the data set on study subjects was “successfully prevented”.

Consider `CCC(C)[C@H](NC(=O)Cc1ccccc1F)C(=O)N[C@]1(C(=O)N[C@H](C(=O)NCN2CCOCC2)C(C)CC)CCc2[nH]c3c(C(F)(F)F)cccc3c2C1` (stereo partly drawn) [Compound 36, (R)-3-{(S)-2-[2-(2-Fluoro-phenyl)-acetylamino]-3-methyl-pentanoylamino}-8-trifluoromethyl-2,3,4,9-tetrahydro-1H-carbazole-3-carboxylic acid {(S)-2-methyl-1-[(morpholin-4-ylmethyl)-carbamoyl]-butyl}-amide], for which, in the data set with study subjects, the “prevention of chemical” value is reported as “successfully prevented”.

As for `CCC(C)[C@H](NC(=O)Cc1ccccc1F)C(=O)N[C@]1(C(=O)N[C@H](C(=S)NCC2CCOCC2)C(C)CC)CCc2[nH]c3c(C(F)(F)F)cccc3c2C1` (stereo partly drawn) [Compound 52, (R)-3-{(S)-2-[2-(2-Fluoro-phenyl)-acetylamino]-3-methyl-pentanoylamino}-8-trifluoromethyl-2,3,4,9-tetrahydro-1H-carbazole-3-carboxylic acid {(S)-2-methyl-1-[(tetrahydro-pyran-4-ylmethyl)-thiocarbamoyl]-butyl}-amide], the “prevention of chemical” value in the data set on study subjects is “successfully prevented”.

Turning to `CCC(C)[C@H](NC(=O)Cc1ccccc1F)C(=O)N[C@]1(C(=O)N[C@H](C(N)=S)C(C)CC)CCc2[nH]c3c(C(F)(F)F)cccc3c2C1` (stereo partly drawn) [compound (76), (R)-3-{(S)-2-[2-(2-fluorophenyl)acetylamino]-3-methylpentanoylamino}-8-trifluoro-methyl-2,3,4,9-tetrahydro-1H-carbazole-3-carboxylic acid ((S)-2-methyl-1-thio-carbamoylbutyl)amide], in the data set with study subjects, the “prevention of chemical” value is recorded as “successfully prevented”.

The record behind these values is patent publication US8273716B2, “Use of LHRH antagonists for intermittent treatments” (Spectrum Pharmaceuticals, Inc., priority 2008, dated 2012).
